Reference: article PMC11594329, “Development of LAT1-Selective Nuclear Medicine Therapeutics Using Astatine-211” (International Journal of Molecular Sciences, 2024)
Entries after “also recorded” stand apart in the source; their conditions may differ.

Columns and labels:
[1] = Urinary and fecal excretion in PANC-1 tumor bearing mice; type: in vivo
Protocol: Urinary excretion levels were also examined (Supplementary Table S1). Comparing the D-isomer and L isomer of ^211At-AAMT-O-Me from ICR mice, the D-isomer; 24.84 ± 13.03% ID, L-isomer; 33.69 ± 1.26% ID at 1 h after injection. D-isomer; 71.36 ± 4.67% ID, L-isomer; 23.99 ± 2.40% ID at 3 h after injection. From PANC-1 tumor bearing mice, D-isomer; 35.24 ± 8.70% ID, L-isomer; 20.40 ± 0.76% ID at 1 h after injection. D-isomer; 47.38 ± 3.19% ID, L-isomer; 3.23 ± 0.67% ID at 3 h after injection. In tumor-bearing models, the amount of excretion was smaller than that in normal mice. We have already reported that, in the presence of target cancer tissue for administered drugs, retention in the cancer tissue results in reduced excretion compared with normal animals. […] The same was also observed for feces, but very little was excreted in the feces. The results were as follows: from ICR mice, D-isomer; 0.06 ± 0.03% ID, L-isomer; 0.004 ± 0.003% ID at 1 h after injection. D-isomer; 0.02 ± 0.01% ID, L-isomer; 0.02 ± 0.01% ID at 3 h after injection. From PANC-1 tumor bearing mice, D-isomer; 0.25 ± 0.12% ID, L-isomer; 0.002 ± 0.001% ID at 1 h after injection. D-isomer; 0.75 ± 0.46% ID; L-isomer; 0.07 ± 0.03% ID at 3 h after injection.
BALB/c nu/nu mice (male, 5 weeks old) were purchased from Japan SLC (Shizuoka, Japan) and subcutaneously transplanted at a density of 1 × 10^7 cells/mouse. PANC-1 cells that reached the logarithmic growth phase were transplanted subcutaneously by mixing a 1 × 10^8 cells/mL cell suspension with an equivalent volume of Matrigel (Corning, Corning, NY, USA) to obtain 1 × 10^7 cells per mouse. Experiments were performed after the size of the transplanted tumor had exceeded 50 mm^3. The doses in the distribution experiments were as follows: ^211At-AAMT-OH-L (0.501 ± 0.011 MBq/mouse, 19.91 ± 0.59 g, n = 3) and ^211At-AAMT-O-Me-L (0.384 ± 0.003 MBq/mouse, 19.18 ± 0.38 g, n = 6 for Table 3), ^211At-AAMT-O-Me-L (158.10 ± 2.94 kBq/mouse, 19.27 ± 0.64 g, n = 6) and ^211At-AAMT-O-Me-D (135.08 ± 2.35 kBq/mouse, 18.64 ± 0.97 g, n = 6), ^211At-AAMT-O-Et-L (0.682 ± 0.011 MBq/mouse, 20.25 ± 1.41 g, n = 6), ^211At-AAMT-O-Pr-L (0.927 ± 0.020 MBq/mouse, 21.74 ± 0.37 g, n = 6).

[2] = system: PANC-1 cells; assay: Uptake in PANC-1 cell line; type: cell-based; settings: for Uptake of optical isomers: %ID/mg protein
Protocol: (§1) Each cell line was seeded in 24 wells at 1 × 10^5 cells/mL and allowed to become sub-confluent on the day of the experiment. Cells were washed with PBS (-) (Fujifilm Wako Pure Chemical, Osaka, Japan) prior to the addition of the compound, which was then replaced with uptake buffer. After treating the cells with the same dose, they were collected at predetermined time points. The cell dose was measured using a γ-counter (Wizard^2 2480; PerkinElmer, Waltham, MA, USA), and the protein content of the sample was determined. Protein content was measured using the BCA method, and the dose was corrected using the protein content (Protein Assay BCA kit, Fujifilm Wako Pure Chemical).
(§2) Figure 2 Comparison of uptake between the labeled compounds. (A) Relation between uptake ratio and LAT1 expression level. Uptake ratios were compared between LAT1-Tet/HEK293 cells. The Y-axis represents the uptake ratio, and the X-axis is concentration of Doxycycline (Dox) (TaKaRa Bio, Shiga, Japan). The collection time was 30 min after treatment. The expression of LAT1 increased with increasing amounts of Dox. (B) Comparison of uptake in PANC-1 cell line. The collection times were 0.5, 1, 5 and 10 min after treatment.
Figure 3 Comparison of intracellular uptake of […]-AAMT-O-Me L-isomer and ^211At-AAMT-O-Me D-isomer of ^211At-AAMT-O-Me. (A) Uptake in Mock/HEK293, LAT1/HEK293, and […] lines. (B) Uptake in PANC-1 cells. The y-axis represents %ID/mg protein. BCH: -Amino-2-norbornanecarboxylic acid. BCH was treated at 20 mM. ** p < 0.01, *** p < 0.001.
(§3) The PANC-1 cell line was obtained from the RIKEN Cell Bank and maintained in RPMI 1640 medium (Fujifilm Wako Pure Chemical, Osaka, Japan) supplemented with 10% inactivated fetal bovine serum (Thermo Fisher Scientific, Waltham, MA, USA). Mock/HEK293, LAT1/HEK293, and LAT2/HEK203 cells were kindly provided by Dr. Kanai. Cell lines controlling LAT1 expression were constructed using the Tet-on system. […]

[3] = system: LAT1-Tet/HEK293 cells; assay: Uptake versus LAT1 expression level (Dox-induced) in LAT1-Tet/HEK293 cells; type: cell-based; settings: collection 30 min after treatment
Protocol: as §1, §2
as §3, with “system. HEK293 cells were obtained from the RIKEN Cell Bank and maintained in E-MEM (Fujifilm Wako Pure Chemical) supplemented with 10% inactivated fetal bovine serum (Thermo Fisher Scientific) and non-essential amino acids (Fujifilm Wako Pure Chemical). The expression vectors were purchased from VectorBuilder, Inc. (Kanagawa, Japan). The purified viral particle genes were transfected into HEK293 cells. Drug selection and cloning of the cell line (Tet-LAT1/HEK293) were performed.” for “system.”

SMILES | Excretion in feces ([1]; 1 h after injection) | Urinary excretion ([1]; 1 h after injection) | Excretion in feces ([1]; 3 h after injection) | Urinary excretion ([1]; 3 h after injection) | Uptake of optical isomers [2] | Uptake ratio versus LAT1 expression (doxycycline concentration) [3] | Time-dependent uptake ([2]; collection 0.5, 1, 5 and 10 min after treatment)
COc1ccc(C[C@@](C)(N)C(=O)O)cc1[211At] [^211At-AAMT-O-Me-D] | 0.25 ± 0.12 % ID | 35.24 ± 8.70 % ID | 0.75 ± 0.46 % ID | 47.38 ± 3.19 % ID | taken up less |  | 
COc1ccc(C[C@](C)(N)C(=O)O)cc1[211At] [^211At-AAMT-O-Me-L, (S)-2-amino-3-(3-(astato-^211At)-4-methoxyphenyl)-2-methylpropanic acid] | 0.002 ± 0.001 % ID | 20.40 ± 0.76 % ID | 0.07 ± 0.03 % ID | 3.23 ± 0.67 % ID | taken up more | highest increase in uptake | highest uptake; also recorded: significantly higher uptake than the seed compound
